Measurements published in PMC7464159, “Triple Negative Breast Cancer and Breast Epithelial Cells Differentially Reprogram Glucose and Lipid Metabolism upon Treatment with Triterpenic Acids” (Biomolecules, 2020).
Read-outs that look alike come from different tables or passages of the source.

What was measured:
[1] = test system: MCF-10A cells; assay: MTT cell viability assay; assay type: cell-based; settings: Homo sapiens, mean ± SD, read-out: IC50 cell viability inhibition
Description: (§1) Cells were cultured in 96-well plates at 2 × 10^5 cells/mL (100 µL per well) and treated the following day with either BA or UA (0.5–50 µM), for 24 h, 48 h and 72 h. Vehicle solvent control cells received DMSO (0.25% v/v). Cell viability was estimated by the 3-(4,5-dimethylthiazol-2-yl)-2,5-diphenyltetrazolium bromide (MTT) assay as previously described by. After treatment incubation, 20 μL of MTT stock solution was added to each well (final concentration 0.5 mg/mL), and plates were incubated at 37 °C, for 4 h. Then, the medium was removed, and the formed formazan crystals were dissolved using a DMSO/ethanol (1:1) solution. Finally, absorbance of the formed product was measured at 570 nm using a microplate reader (MultiSkan FC, Thermo Fisher Scientific, Rochester, NY, USA). The IC50, defined as the concentration necessary to cause 50% inhibition of cell viability, was calculated using GraphPad Prism 5.0 (GraphPad Prism Software Inc., San Diego, CA, USA), by plotting the percentage of cell viability as a function of sample concentration logarithm. Three independent experiments were performed for each treatment.

[2] = test system: MDA-MB-231 cells; assay: MTT cell viability assay; assay type: cell-based; settings: Homo sapiens, mean ± SD, read-out: IC50 cell viability inhibition
Description: as §1

[3] = test system: MCF-10A cells; assay: Cell cycle analysis by flow cytometry; assay type: cell-based, human; settings: 48 h
Description: (§2) MDA-MB-231 and MCF-10A cells were seeded in six-well plates at a density of 4 × 10^5 cells/mL (2 mL per well) and cultured for 24 h at 37 °C. […] Vehicle solvent control cells received DMSO (0.10% v/v). Then, cells were trypsinized, collected, washed with phosphate buffered saline (PBS) and fixed with 85% cold ethanol. At the time of analysis, cells were centrifuged at 300× g for 5 min at 4 °C and resuspended in PBS, before being treated with RNase (50 µg/mL) and propidium iodide staining solution (50 µg/mL) and incubated, in the dark, for at least 20 min at room temperature. Propidium iodide-stained cells were analyzed on a Coulter EPICS XL (Beckman Coulter, Hialeah, FL, USA) flow cytometer. The results were acquired using the SYSTEM II software (version 3.0 Beckman-Coulter ®, Brea, CA, USA). Four replicates were performed for each treatment, and for each sample at least 5000 nuclei were acquired. Analysis of cell cycle distribution was performed using the FlowJo software (Tree Star, Ashland, USA).

[4] = test system: MDA-MB-231 cells; assay: Cell cycle analysis by flow cytometry; assay type: cell-based, human; settings: 48 h
Description: as §2

[5] = test system: MDA-MB-231 cells; assay: 1H NMR analysis of culture medium supernatants (exometabolome); assay type: cell-based, human
Description: (§3) MDA-MB-231 and MCF-10A cells were seeded in 10-cm-diameter Petri dishes at a density of 6 × 10^5 cells/mL (10 mL per dish) and cultured for 24 h at 37 °C. Cells were then incubated for 48 h with BA (5 and 15 µM) or UA (10 and 20 µM). Vehicle solvent control cells received DMSO (0.10% v/v). Samples were collected immediately after 48 h incubation or, to assess cellular recovery, medium was replaced with fresh growth medium (without TAs), and cells were incubated for additional 24 h before collection (48 + 24 h samples). Four independent assays were performed.
(§4) After incubation, culture medium was collected and centrifuged (1000× g, 5 min) and the supernatant stored at −80 °C until analysis. Culture medium without cells was placed under the same conditions and collected. Cell extraction was performed as described by Carrola et al.. Briefly, cells were washed four times with PBS and extracted with a mixture of methanol:chloroform:water (1:1:0.7). The resulting polar and organic phases were collected and then dried under vacuum or under a stream of nitrogen gas, respectively. All samples were stored at −80 °C and, at the time of analysis, dried polar extracts were reconstituted in 600 µL of deuterated phosphate buffer (100 mM, pH 7.4) containing 0.1 mM TSP-d4, while organic extracts were reconstituted in deuterated chloroform containing 0.03% TMS. Regarding medium samples, 540 μL were mixed with 60 μL of D2O containing 0.25% TSP-d4. Prior to analysis, 550 μL of each sample were transferred to 5 mm NMR tubes.
(§5) ^1H NMR spectra of all samples were acquired on a Bruker Avance III HD 500 NMR spectrometer (University of Aveiro, Portuguese NMR Network) operating at 500.13 MHz for ^1H observation equipped with a 5 mm TXI probe. Standard 1D spectra (Bruker pulse programs ‘noesypr1d’, with water suppression, for medium samples and aqueous extracts, and ‘zg’ for organic extracts) were recorded with a 7002.8 Hz spectral width, 32 k data points, a 2 s relaxation delay and 512 scans. Spectral processing comprised exponential multiplication with 0.3 Hz line broadening, zero filling to 64 k data points, manual phasing, baseline correction, and chemical shift calibration to the TSP or TMS signal at 0 ppm. 2D ^1H-^1H total correlation (TOCSY) spectra, ^1H-^13C heteronuclear single quantum correlation (HSQC) spectra and J-resolved spectra were also registered for selected samples to assist spectral assignment. Metabolites were identified with the support of 2D spectra and the spectral reference databases BBIOREFCODE-2-0-0 (Bruker Biospin, Rheinstetten, Germany) and HMDB [28]. Selected signals were then integrated using the AmixViewer software […] (version 3.9.14, Bruker BioSpin, Rheinstetten, Germany) and normalized by the total spectral area. The magnitude of each metabolite change was assessed through the percentage of variation (and its respective error) in exposed samples relatively to controls, and through the effect size (ES) adjusted for small sample numbers (and respective standard error). Metabolite variations with absolute ES greater than 0.8 were expressed in a heatmap, colored as a function of the percentage of variation, employing the R statistical software.

[6] = test system: MCF-10A cells; assay: 1H NMR analysis of organic cell extracts (lipids); assay type: cell-based, human; settings: for levels of triglycerides: vs control cells
Description: as §3, §4, §5

[7] = test system: MDA-MB-231 cells; assay: 1H NMR analysis of organic cell extracts (lipids); assay type: cell-based, human; settings: 48 h; for levels of neutral lipids (cholesteryl esters and triglycerides): vs control; for plasmalogen lipids: high exposure concentration
Description: as §3, §4, §5

[8] = test system: MDA-MB-231 cells; design: method as in PMID 28213701; settings: MDA-MB-231, 24 h incubation; read-out: IC50 reported in the literature; cited from earlier work
[9] = test system: MDA-MB-231 cells; design: method as in PMID 28213701; settings: cited from earlier work

Compound: C[C@H]1[C@H](C)CC[C@]2(C(=O)O)CC[C@]3(C)C(=CC[C@@H]4[C@@]5(C)CC[C@H](O)C(C)(C)[C@@H]5CC[C@]43C)[C@H]12 [UA, ursolic acid]
- IC50 ([1]; 24 h): 37.9 ± 8.93 µM
- IC50 ([1]; 48 h): 18.7 ± 3.27 µM
- IC50 ([1]; 72 h): 21.5 ± 4.55 µM
- IC50 ([2]; MDA-MB-231, 24 h): 24.5 ± 4.61 µM
- IC50 ([2]; MDA-MB-231, 48 h): 17.2 ± 0.86 µM
- IC50 ([2]; MDA-MB-231, 72 h): 17.7 ± 2.81 µM
- effect on cell cycle phases ([3]; 20 µM, vs untreated): no statistical differences
- effect on cell cycle phases ([4]; 20 µM, vs untreated): no statistical differences
- consumption of glucose, leucine and choline ([5]; UA, 48 + 24 h): decreased consumption
- excretion of lactate, 2-oxoisovalerate, citrate, alanine and glutamate ([5]; UA, 48 + 24 h): decreased excretion
- changes in the exometabolome ([5]; UA, 48 h): no significant changes
- levels of triglycerides [6]: increases
- levels of neutral lipids (cholesteryl esters and triglycerides) [7]: decreased levels
- plasmalogen lipids [7]: decreased levels
- IC50 [8]: 22.9 µM
- expression of glycolytic enzymes (HK2 and PKM2) and ATP content ([9]; UA 5–20 µM): decreased

Compound: C=C(C)[C@@H]1CC[C@]2(C(=O)O)CC[C@]3(C)[C@H](CC[C@@H]4[C@@]5(C)CC[C@H](O)C(C)(C)[C@@H]5CC[C@]43C)[C@@H]12 [BA, betulinic acid]
- IC50 ([1]; 24 h): 22.4 ± 6.49 µM
- IC50 ([1]; 48 h): 11 ± 1.83 µM
- IC50 ([1]; 72 h): 2.38 ± 1.36 µM
- IC50 ([2]; MDA-MB-231, 24 h): 31.3 ± 5.94 µM
- IC50 ([2]; MDA-MB-231, 48 h): 13.2 ± 2.3 µM
- IC50 ([2]; MDA-MB-231, 72 h): 8.39 ± 0.98 µM
- cells at the G0/G1 phase ([3]; 15 µM, vs control): decrease in the G0/G1 phase
- cells at the G2 phase ([3]; 15 µM, vs control): cell cycle arrest at the G2 phase
- cells at the S phase ([3]; 15 µM, vs control): increase in the S phase
- cell population at the S phase ([4]; 15 µM, vs non-exposed control): decreased cell population
- cells at the G2 phase ([4]; 15 µM, vs non-exposed control): significant accumulation
- consumption of leucine ([5]; BA 5µM, 48h): decreased significantly
- glucose consumption ([5]; BA 15µM, 48h): significant increases
- lactate excretion ([5]; BA 15 µM, 48 h (already noticed at 5 µM)): significant increases
- consumption of leucine and pyruvate ([5]; BA, 48 + 24 h): consumed less
- excretion of 2-oxoisovalerate, citrate and alanine ([5]; BA, 48 + 24 h): excreted less
- glucose consumption and lactate excretion vs untreated controls ([5]; BA, 48 + 24 h): no longer differences
- levels of glycerophospholipids (including plasmalogen) ([6]; BA): decreased levels
- relative amount of free cholesterol ([6]; BA): increased
- levels of triglycerides [6]: increased levels
- levels of neutral lipids (cholesteryl esters and triglycerides) [7]: decreased significantly
- total glycerophospholipids and free cholesterol ([7]; BA): increased
- plasmalogen lipids [7]: decreased
- IC50 [8]: 30.6 µM
- lactate levels and expression of glycolytic enzymes ([9]; BA up to 20 µM, 24 h): did not alter
